Values joined by “and” are separate entries in the source; they are usually repeats but may differ in a detail not shown here. Equal values may be shown once. Marks after values point to notes of the source that are not given here.
Key:
[1] = test system: Left anterior descending coronary artery (LAD); test: Transthoracic doppler echocardiography (TTDE) flow velocity measurements at rest and under pharmacologic stress; assay type: in vivo, human; conditions: for Average Optimal Effect Duration: combined with adenosine bolus
Excerpt: The value of absolute coronary blood flow (CBF) may be substituted by the value of CBF velocity (peak and mean velocities). […] Given that blood flow=velocity flow×cross section, if cross section is constant, velocity variations reflect blood flow variations.
TTDE is a non invasive approach conducted under the same conditions as for thallium or technetium scintigraphy (intravenous injection) and another way to study Coronary Flow Reserve (CFR).

[2] = test system: patients; conditions: cited from earlier work
[3] = test system: coronary hyperaemia; conditions: cited from earlier work
[4] = Table 1: same coronary patient, 5 studies, second data of cell, adenosine 140 μg/kg/min 2 minute infusion, combination 30 second IV bolus
[5] = bolus independently of the patient's weight

Nc1ncnc2c1ncn2[C@@H]1O[C@H](CO)[C@@H](O)[C@H]1O [Adenosine, adenosine]
DOE = Duration of optimal effect ([1]; Table 1: same coronary patient): 60 to 90 s | RBL = Return to base line ([1]; Table 1: same coronary patient): 40 to 50 s | TTP = Time to peak ([1]; Table 1: same coronary patient): 40 to 50 s | MV = Mean Velocity, under stress conditions [1, 4]: 78 cm/s and 80 cm/s and 82 cm/s and 75 cm/s and 74 cm/s | PV = Peak Velocity, under stress conditions [1, 4]: 108 cm/sec and 96 cm/sec and 98 cm/sec and 105 cm/sec | CR (based on MV) ([1]; Table 2: three different coronary patients, one line per patient, listed as St. Adenosine): 2.12 and 2.36 and 2.88 | MV (mean velocity), under stress conditions ([1]; Table 2: three different coronary patients, one line per patient, second data of cell, St. adenosine 140 μg/kg/min infusion about 2 minutes, combination IV 30 second bolus): 50 cm/s and 33 cm/s and 75 cm/s | adverse reaction: flushing ([2]; adenosine infusion, most frequently reported): 44% | Other side effects, incidence ([2]; adenosine infusion): below 10% | adverse reaction: chest pain or chest discomfort ([2]; adenosine infusion): 40% | adverse reaction: dyspnoea ([2]; adenosine infusion): 28% | adverse reaction: gastrointestinal discomfort ([2]; adenosine infusion): 13% | adverse reaction: headache ([2]; adenosine infusion): 18% | adverse reaction: throat or neck or jaw discomfort ([2]; adenosine infusion): 15% | time to near-maximal vasodilatation, on average ([3]; infusion): 60 s

Nc1nc(N/N=C/C2CCCCC2)nc2c1ncn2[C@@H]1O[C@H](CO)[C@@H](O)[C@H]1O [binodenoson]
duration of action ([3]; in vivo): 10 ± 6 min

CNC(=O)c1cnn(-c2nc(N)c3ncn([C@@H]4O[C@H](CO)[C@@H](O)[C@H]4O)c3n2)c1 [regadenoson]
side effects as compared to the reference drug Adenoscan (adenosine) ([2]; in vivo): increase in dyspnea, headache and gastrointestinal disorders | efficacy and tolerance at 500 μg [3, 5]: same efficacy as 400 μg but tolerance is worst | efficacy threshold dose in many but not all patients [3, 5]: 300 µg | dose efficient in all patients ([3]; bolus independently of the patient's weight, marketed dose): 400 µg | time after which coronary hyperaemia is induced ([3]; in vivo): 30 s

OCCN(CCO)c1nc(N2CCCCC2)c2nc(N(CCO)CCO)nc(N3CCCCC3)c2n1 [Dipyridamole, dipyridamole]
Average Optimal Effect Duration ([1]; Dipyridamole dose 9 mg, regardless of the dose of adenosine): 30 to 40 s | Average Optimal Effect Duration ([1]; Dipyridamole dose 10 mg, regardless of the dose of adenosine): 40 to 50 s | Average Optimal Effect Duration ([1]; Dipyridamole dose 12 mg, regardless of the dose of adenosine): 40 to 90 s | Average Optimal Effect Duration ([1]; Dipyridamole dose 14 mg, prolongs side effects when they occur): 60-100** sec | coronary effect and side effect ([1]; alone as a 12 mg or 14 mg bolus): no coronary effect and no side effect | coronary effect or symptom ([1]; injected as a bolus alone at the dose of 12 mg (n=5 patients)): does not induce any significant coronary effect or symptom | duration of peak of activity ([3]; in vivo): 20 to 30 min
